Data as given in PMC10165357, “Brain p3‐Alcβ peptide restores neuronal viability impaired by Alzheimer's amyloid β‐peptide” (EMBO Molecular Medicine, 2023).
Ends that are not written are not given here.

Columns and labels:
[1] = tested on: Ca2+ influx in mouse primary neurons; assay: Ca2+ influx after CaCl2 administration in Ca2+-depleted medium, Fluo 4-AM (Fig 3C, 3D, 4C); type: cell-based; details: neurons div 11–14, CaCl2 2 mM, D-AP5 5, 50 and 200 μM; AUC 5–14 min; n = 6
Procedure: All animal studies were conducted in compliance with the ARRIVE guidelines. The mouse study was approved by the Animal Studies Committee of Hokkaido University (#18‐0168). WT C57BL/6J (CLEA, Japan, Inc), Alcβ‐KO (RBRC11514) (Gotoh et al, [2020]), App ^ NL‐F/NL‐F (RBRC06343), and App ^ NL‐G‐F/NL‐G‐F (RBRC06344) (Saito et al, [2014]) mice were housed in specific pathogen‐free (SPF) conditions with a microenvironment vent system (Allentown Inc., Allentown, NJ, USA) under a 12 h/12 h light/dark cycle with free access to food and water. Three to five male or female siblings were housed in each cage; cages were equipped with microbarrier tops. All experimental procedures with Cynomolgus monkeys were approved by the Animal Care and Use Committee of Shiga University of Medical Science and were carried out in accordance with approved guidelines (Nishimura et al, [2012]). Stored frozen pieces of the cerebral cortex of monkeys were used. Sprague–Dawley rats (8‐week‐old) were purchased from Japan SLC Inc. (Hamamatsu, Japan) and housed with their littermates. […] All animal protocols and related experiments were approved by the Ethics Committees of the Central Research Laboratory at Hamamatsu Photonics and Hamamatsu University School of Medicine. […]

[2] = tested on: Aβo-induced Ca2+ influx in mouse primary neurons; assay: Aβ42 oligomer-induced Ca2+ influx, Fluo 4-AM (Fig 3A, 3B, 4A, 4D, EV2A, EV2B); type: cell-based; details: neurons div 14, Aβo 5.2 μM
mitochondrial activity = details: ref Singh et al, 2017; cited from earlier work
From the text: Therefore, we would like to re‐emphasize that the function of p3‐Alcβ is to increase neuronal viability and to protect neurons against Aβ‐induced toxicity, and that the target of p3‐Alcβ may not directly be Aβ peptide and Aβ aggregates/plaques. This property of p3‐Alcβ as a druggable candidate for AD therapy is likely to be distinct from immunotherapies that use anti‐Aβ antibodies. Furthermore, the fu ...

[3] = WT mice, s.c. injection 5 mg/kg, n = 4 per time point
From the text: IgG was purified with antigen‐coupled resin and conjugated to biotin. Horseradish peroxidase‐conjugated streptavidin was purchased from Amersham/GE Healthcare (Cat #RPN1051, Little Chalfont, UK), and the tetramethyl benzidine (TMB) microwell peroxidase substrate system was obtained from SeraCare Life Sciences Inc. (Cat #5120‐0075, Milford, MA, USA). Mice were then anesthetized with 1% isoflurane, CSF was collected from the cisterna magna as described previously (Liu & Duff, [2008]), and mice were then sacrificed. […] The sensitivity of this ELISA is equivalent to that of other sELISA systems used to quantify p3‐Alcβ37 and p3‐Alcβ40 (Hata et al, [2019]). Antiserum diluted 1:10,000 was used as a capture antibody in the sELISA. The antibody was affinity‐purified with antigen‐coupled resin, and biotin‐labeled IgG was then used as the detection antibody.

[4] = Alcβ-KO mice, subcutaneous administration

Question: For `NC(CCCP(=O)(O)O)C(=O)O` (stereo not drawn) [D‐AP5], which “Ca2+ influx after Ca2+ administration with D-AP5 (Fig 4C)” value [1] is on record?
Answer: slightly, but not significantly, reduced

Question: And the “Aβo-induced Ca2+ entry with NMDA antagonist (Fig 4A)” value ([2]; D-AP5 50 μM, AUC 5–29 min, n = 4)?
Answer: suppressed

Question: And the “suppression of Aβo-triggered Ca2+ influx, single agents (Fig 4D)” value ([2]; p3-Alcβ9-19 50 μM or D-AP5 50 μM, AUC 5–28 min, n = 12)?
Answer: suppressed significantly

Question: With `CC12CC3CC(C)(C1)CC(N)(C3)C2` [memantine] as the molecule, how does the mitochondrial activity (mitochondrial activity) read?
Answer: does not increase mitochondrial activity

Question: For HRGHQPPPEMA [p3‐Alcβ9‐19], which “transfer into the brain, p3-Alcβ9-19 levels in CSF by sELISA” value [3] is on record?
Answer: successful transfer

Question: With “VLSSQQFLHRGHQPPPEMAGHSLASSHRNSMIPSAAT [p3‐Alcβ37]” as the molecule, how does the “transport into the brain” value [4] read?
Answer: transported into the brain
